Measured values from patent publication US7008941B2, “Reverse-turn mimetics and methods relating thereto” (Myriad Genetics, Inc., priority 2001, dated 2006).

Key:
neurokinin-1 receptor = neurokinin-1 receptor (Homo sapiens, UniProt P25103); assay: Tachykinin antagonism assay: inhibition of Substance P-induced calcium mobilization (FLIPR) in U373 MG cells; format: cell-based; details: Substance P 1 nM
Method: An assay measuring the ability of compounds 1–50 to antagonize binding of substance P peptide to its receptor neurokinin-1 was performed. Substance P is known to act upon cells via the mobilization of calcium (Bordey et al., Glia 11: 277–283, 1994). The compounds were assessed for their ability to inhibit the action of Substance P with the use of a Fluorescent Imaging Plate Reader (FLIPR) from Molecular Devices (Shroeder et al., J. Biomol. Screening 1: 75–80, 1996; U.S. Pat. No. 5,112,134; U.S. Pat. No. 4,968,148). […] This dye is similar to Fluo-3, Fluo-4, and Calcium Green dyes used by other researchers (Lin et al., Biotechniques 26: 318–326, 1999) in that it increases in fluorescence in the presence of calcium; the Molecular Devices version is preferable because the cells need not be washed following staining with the dye. […] Substance P was added in Hank's salt solution with 1% BSA to give a final concentration of 1 nM and the resultant change in fluorescence intensity was monitored for thirty seconds with an excitation wavelength of 480 nm and an emission of 515 nm. Some wells were maintained as controls which were not incubated with any compound, and the peak fluorescence readings resulting from the wells which received compounds were compared to these control wells in order to determine the degree of inhibition.

α4β1 integrin = biological target: T1, α4β1 integrin (Homo sapiens, UniProt P05556+P13612); assay: Antagonism of binding of CS1 peptide to α4β1 integrin (calcein-labelled Ramos cell adhesion to biotinylated CS1 plate); format: cell-based; details: Ramos cells
T1 construct: Harvested Ramos cells; endogenous in cells; host or cells: Ramos cells
Method: In brief, 100 μL/well of a solution of biotinylated CS1 peptide (1 mg/100 mL of phosphate buffered saline (PBS)) was incubated in a NeutrAvidin plate (Pierce) for 1 h at room temperature. The plate was then washed 3× with distilled water and treated with 200 μL of blocking buffer (3% BSA in PBS) for at least 4 h. Blocked plates were washed as above. Harvested Ramos cells (10^7/mL) were resuspended in PBS containing 10 μL of calcein AM/mL and incubated 30 min in the dark. This suspension was diluted with 45 mL PBS and the cells harvested by centrifugation and aspiration. The cells were resuspended in binding buffer (˜5×10^5/mL). If cell lysis was to be monitored ethidium homodimer was added to the buffer to a final concentration of 5 μM. A solution (10 μL) of compound to be tested or control peptide was added to appropriate wells followed by 90 μL of the cell suspension. The plate was incubated at 37° C. for 1 h. […] Otherwise, the plate was washed 3×, 50 μL of lysis buffer was added to each well, the plate rocked in the dark for 10 min, and the fluorescence monitored at 485 nm excitation and 535 nm emission.

T1 sequence (P13612 34-1032): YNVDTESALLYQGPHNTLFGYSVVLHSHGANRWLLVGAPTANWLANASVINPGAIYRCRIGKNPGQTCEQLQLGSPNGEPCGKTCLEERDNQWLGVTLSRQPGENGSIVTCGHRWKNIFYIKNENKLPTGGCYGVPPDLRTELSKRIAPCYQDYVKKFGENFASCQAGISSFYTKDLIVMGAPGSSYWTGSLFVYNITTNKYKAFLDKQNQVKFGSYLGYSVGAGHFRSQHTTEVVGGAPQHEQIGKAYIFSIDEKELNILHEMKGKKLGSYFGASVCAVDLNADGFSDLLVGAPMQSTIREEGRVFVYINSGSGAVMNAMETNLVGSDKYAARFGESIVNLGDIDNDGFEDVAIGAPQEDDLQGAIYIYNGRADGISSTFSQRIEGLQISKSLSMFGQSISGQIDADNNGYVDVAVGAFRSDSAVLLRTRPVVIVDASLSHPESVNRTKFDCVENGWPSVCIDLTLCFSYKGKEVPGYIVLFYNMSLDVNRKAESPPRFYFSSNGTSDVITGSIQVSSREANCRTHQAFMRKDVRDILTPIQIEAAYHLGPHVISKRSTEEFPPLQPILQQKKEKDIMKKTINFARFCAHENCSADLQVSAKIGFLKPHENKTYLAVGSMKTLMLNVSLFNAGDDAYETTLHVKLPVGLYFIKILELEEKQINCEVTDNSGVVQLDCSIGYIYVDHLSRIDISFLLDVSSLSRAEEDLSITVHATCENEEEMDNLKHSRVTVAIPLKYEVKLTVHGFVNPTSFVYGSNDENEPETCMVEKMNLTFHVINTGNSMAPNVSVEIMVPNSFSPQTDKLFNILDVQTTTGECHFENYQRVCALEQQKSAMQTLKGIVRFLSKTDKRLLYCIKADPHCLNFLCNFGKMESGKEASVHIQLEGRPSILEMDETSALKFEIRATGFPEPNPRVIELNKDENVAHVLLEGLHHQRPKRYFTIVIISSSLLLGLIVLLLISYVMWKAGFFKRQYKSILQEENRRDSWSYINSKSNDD
T1 sequence (P05556 21-798): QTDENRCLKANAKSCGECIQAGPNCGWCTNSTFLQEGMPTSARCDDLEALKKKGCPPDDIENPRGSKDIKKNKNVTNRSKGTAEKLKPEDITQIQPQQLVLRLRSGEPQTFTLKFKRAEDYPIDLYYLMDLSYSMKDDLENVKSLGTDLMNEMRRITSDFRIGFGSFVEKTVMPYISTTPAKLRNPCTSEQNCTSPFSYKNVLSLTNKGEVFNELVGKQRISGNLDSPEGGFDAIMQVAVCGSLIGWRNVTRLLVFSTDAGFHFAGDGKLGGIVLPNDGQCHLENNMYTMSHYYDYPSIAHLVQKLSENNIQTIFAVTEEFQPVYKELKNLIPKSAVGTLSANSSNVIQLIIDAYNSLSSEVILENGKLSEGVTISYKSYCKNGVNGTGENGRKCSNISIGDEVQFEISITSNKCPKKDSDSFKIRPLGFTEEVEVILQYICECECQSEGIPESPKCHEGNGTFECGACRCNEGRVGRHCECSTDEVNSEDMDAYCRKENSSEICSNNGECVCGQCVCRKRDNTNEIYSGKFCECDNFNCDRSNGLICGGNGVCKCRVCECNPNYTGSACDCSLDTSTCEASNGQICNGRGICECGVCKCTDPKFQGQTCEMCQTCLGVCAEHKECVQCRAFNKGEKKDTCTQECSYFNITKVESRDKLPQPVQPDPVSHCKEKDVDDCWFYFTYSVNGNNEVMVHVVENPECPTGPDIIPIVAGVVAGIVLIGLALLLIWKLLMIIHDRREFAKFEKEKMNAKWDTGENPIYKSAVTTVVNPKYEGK
Chain of neurokinin-1 receptor (P25103 whole entry): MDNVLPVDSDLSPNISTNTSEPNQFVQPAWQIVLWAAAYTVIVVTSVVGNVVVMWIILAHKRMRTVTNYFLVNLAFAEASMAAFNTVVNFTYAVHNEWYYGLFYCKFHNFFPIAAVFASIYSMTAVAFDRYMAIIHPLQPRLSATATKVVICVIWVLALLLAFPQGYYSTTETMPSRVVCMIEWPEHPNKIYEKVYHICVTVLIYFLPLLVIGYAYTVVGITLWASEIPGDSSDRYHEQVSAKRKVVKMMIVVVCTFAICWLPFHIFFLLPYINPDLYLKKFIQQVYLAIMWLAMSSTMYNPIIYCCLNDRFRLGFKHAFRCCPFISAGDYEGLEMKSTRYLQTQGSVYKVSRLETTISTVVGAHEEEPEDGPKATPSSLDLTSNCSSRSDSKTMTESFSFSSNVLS

## CC12OC(=O)[C@H](Cc3ccccc3)N1C(=O)[C@H]1CCCN1C2=O (stereo partly drawn) [Compound 45]
neurokinin-1 receptor
  inhibition at 20 µM: > 25%
α4β1 integrin
  inhibition at 100 µM: > 50%

## O=C1C[C@H](Cc2ccccc2)N2C(=O)[C@H](Cc3ccc(O)cc3)N(CC3CCCCC3)C(=O)C2O1 (stereo partly drawn) [Compound 47]
α4β1 integrin
  inhibition at 100 µM: > 50%
